According to paper PMC9234961 (Journal of Medicinal Chemistry, 2022):
pIC50: −log10 of the molar value. Converted amounts (≈) assume the structure as drawn. “And” between values parts separate entries of the source, which are not always exact repeats. Equal entries are not always repeated. Where two headings read alike, the source gives them in different places.

Assays:
[1] = target: endogenous BCL6 in OCI-Ly1 cells (Homo sapiens, UniProt P41182); assay: cell-based; conditions: for degradation of BCL6 (in words): OCI-Ly1 MSD assay; for MSD degrader assay [OCI-Ly1] Dmax: mean maximal degradation of BCL6; for MSD degrader assay [OCI-LY1] pDC50 mean: mean of replicates
[2] = Microsomal clearance assay (MLM); format: in vitro ADME; conditions: female, CD1, pH 7.4; mouse liver microsomes, 1 μM compound
Method: 6. Supplementary experimental: in vitro DMPK assays
6.1 Microsomal clearance assay
Microsomal clearance was determined in female CD1 mice, female Sprague–Dawley rats, and mixed gender human liver microsomes obtained from BioIVT (Peterborough, U.K.) following incubation of 1 μM compound at 37 °C in 0.5 mg/mL microsomal protein, 3 mmol/L MgCl2, 1 mmol/L NADPH, 2.5 mmol/L and 10 mmol/L phosphate buffer (pH 7.4) (all purchased from Sigma-Aldrich, Gillingham, U.K). Reactions were started by addition of the cofactors following 10 min preincubation of microsomes with test compound and were terminated at −1, 0, 5, 10, 15, and 30 min with three volumes of ice-cold methanol containing internal standard. Samples were centrifuged at 2800g for 30 min at 4 °C and the supernatants analyzed.
Control incubations were prepared as above with omission of cofactors. Compound measurements were […]
separation with a 3 min gradient of 0.1% formic acid in methanol on a Kinetex C18, 50 × 2.1 mm 2.6 μm UPLC column (Phenomenex, Macclesfield, UK). […]

[3] = logD7.4 assay (Chrom log D method); format: physicochemical; conditions: reversed-phase HPLC on Phenomenex Luna C8 column, pH 7.4, read-out: Measured logD7.4
Method: Calibration, validation and in-house compounds were prepared at 1mM in 10% DMSO / 90% Trizma solution (100mM Trizma in 75/25 methanol/water). 3 µL standard injections (with needle wash) of all calibration, validation and in-house samples were made onto a Phenomenex Luna C8 column (3µm, 100 x 4.6 mm, 100A, Phenomenex, Torrence, USA). Chromatographic separation at 30°C was carried out using […]
2 mL/min. The gradient was held at 0:100 water:organic for 0.8 minutes, then returned to the starting conditions of 95:5 water:organic for 0.2 minutes. The column was re-equilibrated for 5 minutes at the […]

NMR solubility assay = format: physicochemical; conditions: kinetic solubility by NMR in HEPES buffer at pH 8, 4% DMSO; read-out: Aq. Sol.
Method: 4. Supplementary experimental: physicochemical assays
0.5 mM TCEP, 10% D2O) was pipetted into the same well and mixed by up-down pipetting 3 times to create […]
It was then separated by centrifugation (1000 rpm
The plate was then sealed and incubated at room temperature for 20 hours, […]
165 µL of the supernatant was transferred to a 3 mm NMR tube (Bruker, Part No. Z112272) using liquid handler SamplePro Tube SJ S (Bruker). The concentration of the solubilized compound in solubility sample is measured by quantitative 1H-NMR using a single external standard (200 µM caffeine (Sigma, C1778) in PBS (pH 7.4) with 1% DMSO-d6).
The detail of the NMR method is as following: NMR data was collected on a Bruker Avance Neo 600 spectrometer equipped with a 5 mm TCI-CryoProbe. The 1H spectrum was referenced to the internal deuterated solvent. The operating frequency for 1H was 600 MHz. All NMR data were acquired at the […]
1H-NMR spectrum was acquired using a Bruker standard 1D lc1pngppsf2 pulse sequence with 32 scans.
The sweep width was 6.2 ppm with O1P set to 8.8 ppm, and the FID contained 16k time-domain data points. Relaxation delay was set to 20 sec. Water signal was suppressed. […]

human BCL6 BTB domain [4] = target: T1, human BCL6 BTB domain (Homo sapiens, UniProt P41182); conditions: for BCL6 TR-FRET pIC50 mean: mean of replicates
Method: (§1) Assays were performed in a 384-well black Proxiplate (Perkin Elmer) containing 1 nM Trx-6xHis-BCL6 (in
(§2) anti-6xHis-Terbium cryptate (CisBio Bioassays, France), in assay buffer (25 mM Hepes pH8, 100 mM NaCl,
(§3) 0.05% Tween20, 0.5 mM TCEP, 0.05% bovine serum albumin). Test compounds in DMSO or DMSO alone
(§4) were added to the wells using an ECHO550 acoustic dispenser (Labcyte Inc) to give the appropriate test
(§5) concentration in 0.7% v/v DMSO final. After 2 hours incubation at room temperature the plate was read
(§6) The % inhibition at each concentration was calculated by normalising FRET ratio to the
(§7) appropriate high (DMSO with all reagents) and low (DMSO without BCL6) controls. IC50 values were
(§8) determined using GraphPad Prism 6.0 or Dotmatics (Bishops Stortford, UK) software by fitting the
(§9) normalised data to a sigmoidal four-parameter logistic fit equation.

human BCL6 BTB domain [5] = target: T1, human BCL6 BTB domain; assay: biochemical; conditions: BCL6 TR-FRET IC50 individual replicates, single replicate values
Method: as §1, §2, §3, §4, §5, §6, §7, §8, §9

[6] = OCI-Ly1, read-out: MSD degrader assay [OCI-LY1] Dmax individual replicates, single replicate values
[7] = OCI-Ly1, read-out: MSD degrader assay [OCI-Ly1] Dmax, mean maximal degradation of BCL6, OCI-Ly1 cells, 2 h
[8] = read-out: MSD degrader assay [OCI-LY1] DC50 individual replicates, single replicate values
[9] = read-out: MSD degrader assay [OCI-Ly1] DC50, geometric mean, OCI-Ly1 cells, 2 h incubation
[10] = read-out: BCL6 TR-FRET IC50, geometric mean, BCOR-AF633 peptide, 2 h incubation
[11] = read-out: BCL6 TR-FRET IC50 individual replicates, single replicate values

Structure (SMILES)	Dmax [1, 6]	Dmax [1, 7]	degradation of BCL6 (in words) [1]	MSD degrader assay [OCI-Ly1] Dmax ([1]; OCI-Ly1 cells, 2 h)	MSD degrader assay [OCI-LY1] pDC50 mean [1]	DC50 [1, 8]	DC50 [1, 9]	MSD degrader assay [OCI-LY1] Dmax individual replicates ([1]; single replicate values)	microsomal CLint at 0.5 h, 1 µM [2]	chromatographic logD [3]	solubility kinetic at 20 h (NMR solubility assay)	BCL6 TR-FRET pIC50 mean (human BCL6 BTB domain [4])	pIC50 (human BCL6 BTB domain [4]; [10])	pIC50 (human BCL6 BTB domain [5])	pIC50 (human BCL6 BTB domain [4]; [11])
Cn1c(=O)c2c(c3cc(Nc4nc(N5CCC(F)(F)[C@@H](O)C5)ncc4Cl)ccc31)N[C@@H](C1CC1)C(F)(F)CO2 (single isomer, unassigned) [8a]	60.5%	59.6%	potently degrading isomer	60%	8.1499	4.3 nM and 11.6 nM and 7.1 nM	7.1 nM	50.7% and 67.5%	53 µL/min/mg	3	11 µM (≈ 6.26 µg/mL)	8.4571	8.46	8.49 and 8.48 and 8.40	
Cn1c(=O)c2c(c3cc(Nc4nc(N5CCC(F)(F)[C@H](CO)C5)ncc4Cl)ccc31)N[C@@H](C1CC1)C(F)(F)CO2 [9b, (S)-10-((5-Chloro-2-((S)-4,4-difluoro-3-(hydroxymethyl)piperidin-1-yl)pyrimidin-4-yl)amino)-2-cyclopropyl-3,3-difluoro-7-methyl-1,2,3,4-tetrahydro-[1,4]oxazepino[2,3-c]quinolin-6(7H)-one]		44.7%	partial degradation	~45%		> 2000 nM	> 2000 nM	56.1% and 58.2% and 19.9%	129 µL/min/mg	3.2	6.8 µM (≈ 3.96 µg/mL)	8.3907	8.39	8.47 and 8.42 and 8.30	8.38
CC(=O)N[C@@H]1C[C@H](C)CN(c2ncc(Cl)c(Nc3ccc4c(c3)c3c(c(=O)n4C)OCC(F)(F)[C@H](C4CC4)N3)n2)C1 [10a, N-((3R,5S)-1-(5-Chloro-4-(((S)-2-cyclopropyl-3,3-difluoro-7-methyl-6-oxo-1,2,3,4,6,7-hexahydro-[1,4]oxazepino[2,3-c]quinolin-10-yl)amino)pyrimidin-2-yl)-5-methylpiperidin-3-yl)acetamide]	72.4%		potently degrading isomer	67%	8.6565	1.7 nM and 2.8 nM	2.2 nM	61.63%	138 µL/min/mg	2.8	15 µM (≈ 8.82 µg/mL)	8.4394	8.44	8.47 and 8.36 and 8.49	
CC(=O)N[C@H]1C[C@@H](C)CN(c2ncc(Cl)c(Nc3ccc4c(c3)c3c(c(=O)n4C)OCC(F)(F)[C@H](C4CC4)N3)n2)C1 [10b, N-((3S,5R)-1-(5-Chloro-4-(((S)-2-cyclopropyl-3,3-difluoro-7-methyl-6-oxo-1,2,3,4,6,7-hexahydro-[1,4]oxazepino[2,3-c]quinolin-10-yl)amino)pyrimidin-2-yl)-5-methylpiperidin-3-yl)acetamide]	< 30%	< 30%	nondegrading isomer	> 30%		> 2000 nM	> 2000 nM		134 µL/min/mg	2.8	15 µM (≈ 8.82 µg/mL)	8.5388	8.54	8.46 and 8.59 and 8.60	8.52
C[C@H]1C[C@@H](N(C)C)CN(c2ncc(Cl)c(Nc3ccc4c(c3)c3c(c(=O)n4C)OCC(F)(F)[C@H](C4CC4)N3)n2)C1 [11a, (S)-10-((5-Chloro-2-((3R,5S)-3-(dimethylamino)-5-methylpiperidin-1-yl)pyrimidin-4-yl)amino)-2-cyclopropyl-3,3-difluoro-7-methyl-1,2,3,4-tetrahydro-[1,4]oxazepino[2,3-c]quinolin-6(7H)-one]	53.6%		potently degrading isomer	56%	8.0099	8.3 nM and 8.9 nM and 12.7 nM	9.8 nM	60.7% and 54.9%	876 µL/min/mg	3.3	60 µM (≈ 34.4 µg/mL)	8.4757	8.48	8.41 and 8.52	8.49 and 8.48
C[C@@H]1C[C@H](N(C)C)CN(c2ncc(Cl)c(Nc3ccc4c(c3)c3c(c(=O)n4C)OCC(F)(F)[C@H](C4CC4)N3)n2)C1 [11b, (S)-10-((5-Chloro-2-((3S,5R)-3-(dimethylamino)-5-methylpiperidin-1-yl)pyrimidin-4-yl)amino)-2-cyclopropyl-3,3-difluoro-7-methyl-1,2,3,4-tetrahydro-[1,4]oxazepino[2,3-c]quinolin-6(7H)-one]	< 30%	< 30%	nondegrading isomer	> 30%		> 2000 nM	> 2000 nM		681 µL/min/mg	3.3	58 µM (≈ 33.3 µg/mL)	8.4399	8.44	8.48 and 8.52 and 8.32	
Cn1c(=O)n(CCC(C)(C)O)c2cc(Nc3nc(N4CCC(F)(F)C(O)C4)ncc3Cl)ccc21 (centres unmarked) [compound 3, 5-((5-Chloro-2-(4,4-difluoro-3-hydroxypiperidin-1-yl)pyrimidin-4-yl)amino)-3-(3-hydroxy-3-methylbutyl)-1-methyl-1,3-dihydro-2H-benzo[d]imidazol-2-one]	81%	77.5%		78%	6.5593	246 nM and 310 nM	276 nM	74.1%	35 µL/min/mg	2.3	11 µM (≈ 5.47 µg/mL)	6.6241	6.62		6.64 and 6.61 and 6.62
